According to ChEMBL document CHEMBL4371068, “Potent inhibitors of malarial P. Falciparum protein kinase G: Improving the cell activity of a series of imidazopyridines” (Bioorg Med Chem Lett, 2019):

experiment: Apparent permeability of the compound in phosphate buffer saline at 50 to 200 uM after 5 hrs by PAMPA; type: ADME

Structure (SMILES) | Papp at 5 h, up to 200 µM [×10⁻⁶ cm/s]
CN(C)Cc1ccc2c(c1)nc(-c1ccc(F)cc1)n2-c1ccnc(N)n1 | 3.2
CN(C)CCNc1ccc2nc(-c3ccc(F)cc3)c(-c3ccnc(N)n3)n2n1 | 1
Fc1ccc(-c2nc3ccccn3c2-c2ccnc(NC3CCOCC3)n2)cc1 | 14.5
CN(C)Cc1ccn2c(-c3ccnc(N)n3)c(-c3ccc(F)cc3)nc2n1 | 11.8
CN(C)CCCNc1nccc(-c2c(-c3ccc(F)cc3)nc3ccccn23)n1 | 8.2

The next lines start with the values.

Papp at 5 h, up to 200 µM [×10⁻⁶ cm/s] | Structure (SMILES)
18.5 | CN(C)Cc1ccc2c(-c3ccnc(N)n3)c(-c3ccc(F)cc3)nn2c1
12.4 | CN1CCC(n2cc(Nc3nccc(-c4c(-c5ccc(F)cc5)nc5ccccn45)n3)cn2)CC1
5.8 | CN(C)Cc1cc2nc(-c3ccc(F)cc3)c(-c3ccnc(N)n3)n2cn1
